Results taken from patent US10479814B2, “Adenosine receptor activation reagent and the uses of thereof” (Zhejiang Subtropical Crops Research Institute, priority 2014, dated 2019).
Entries after “also recorded” stand apart in the source; their conditions may differ.

How the values were obtained:
Assay type in all cases: in vivo
[1] = tested on: IL-1β mRNA in mouse renal cortex; assay: kidney ischemia reperfusion: real time quantitative PCR of IL-1β; settings: vs IR group; HEA 5, 7.5, 10 mg/kg; DPCPX 1 mg/kg; DPCPX 1 mg/kg+HEA
Procedure: Male C57BL/6 mice 20-25 g, after one week of adaptive feeding to the animals, were randomly divided into eight groups: sham-operation group, IR group, HEA 5 mg/kg group, HEA 7 mg/kg group, HEA 10 mg/kg group, DPCPX (1 mg/kg) group, DPCPX (1 mg/kg)+HEA (5 mg/kg) group and DPCPX (1 mg/kg)+HEA (7.5 mg/kg) group. […]
The MPO analysis was conducted according to the specification in the kit. 9.2.6 Real time quantitative PCR analysis of gene expression of ICAM-1, TNF-α and IL-1β; the sequence of primer used in RT-PCR reaction system is as follow:
PCR amplification reaction system: IQ SYBR Green Super mix 12.5 μL, Forward primer (10 μmo/L) 1 μL, Reverse primer (10 μmol/L) 1 μL, cDNA (water was added to dilute to same level) 10.5 μL. […] The statistics and calculation of experiment results was automatically conducted fluorescence quantitative PCR analyzing software BIO-RAD CFX Manager. Target gene mRNA expression level was calculated by 2-ΔΔCt method, and standardized using the GAPDH mRNA in corresponding specimen a standard.

[2] = tested on: mouse kidney ischemia reperfusion; assay: kidney ischemia reperfusion: apoptosis by TUNEL method; settings: vs IR group, DPCPX 1 mg/kg; for renal tubular epithelial cell apoptosis number (TUNEL×400): HEA treated group, DPCPX+HEA
Procedure: Male C57BL/6 mice 20-25 g, after one week of adaptive feeding to the animals, were randomly divided into eight groups: sham-operation group, IR group, HEA 5 mg/kg group, HEA 7 mg/kg group, HEA 10 mg/kg group, DPCPX (1 mg/kg) group, DPCPX (1 mg/kg)+HEA (5 mg/kg) group and DPCPX (1 mg/kg)+HEA (7.5 mg/kg) group.
The mouse was weighed before operation, then peritoneally injected with pentobarbital sodium 50 mg/kg to anaesthetize the mouse, abdomen was opened by ventromedial incision, blunt dissection and the kidney pedicle was sufficiently exposed, renal ischemia was induced by clapping two side kidney pedicle with non-invasive bulldog clamp, the color of kidney change from bright red to purple black immediately, determination method of success of the experiment model can refer to the methods in literature 7 and 8. At time of 30 min of ischemia the bulldog clamp was loosened, the perfuse was restored, the color of kidney changed gradually from dark red to bright red, showing re perfusion was successful. The wound was stitched. The animals were freely fed water and food.
In the sham-operation group, the mice only received operation of abdomen open, kidney pedicle and abdomen suture. The kidney IR mode were made for the mice in the remaining groups. In each drug group, before 15 minute of ischemia, the drug with corresponding concentration was speritoneally injected, in drug combination group, 15 minutes before ischemia, the drugs were given simultaneously.
Fetching a part of the stored kidney tissue, conventional paraffin embedded 4 μm of section. Operate according to the method of the specification in kit. […] Randomly selecting 10 400-fold visual fields, calculate apoptosis index AI %=positive cell number/total number of all cell in the visual field×100%.

[3] = tested on: mouse kidney ischemia reperfusion; assay: kidney ischemia reperfusion: kidney histopathologic examination (HE); settings: vs IR group, DPCPX 1 mg/kg; for renal tubulointerstitial impairment score: P<0.01, HEA 5, 7.5, 10 mg/kg, DPCPX 1 mg/kg+HEA 5 or 7.5 mg/kg; for kidney histopathological changes (HE×400): HEA groups printed as 2.5, 5, 7.5 mg/kg, DPCPX+HEA 5 or 7.5 mg/kg
Procedure: Male C57BL/6 mice 20-25 g, after one week of adaptive feeding to the animals, were randomly divided into eight groups: sham-operation group, IR group, HEA 5 mg/kg group, HEA 7 mg/kg group, HEA 10 mg/kg group, DPCPX (1 mg/kg) group, DPCPX (1 mg/kg)+HEA (5 mg/kg) group and DPCPX (1 mg/kg)+HEA (7.5 mg/kg) group. The mouse was weighed before operation, then peritoneally injected with pentobarbital sodium 50 mg/kg to anaesthetize the mouse, abdomen was opened by ventromedial incision, blunt dissection and the kidney pedicle was sufficiently exposed, renal ischemia was induced by clapping two side kidney pedicle with non-invasive bulldog clamp, the color of kidney change from bright red to purple black immediately, determination method of success of the experiment model can refer to the methods in literature 7 and 8. At time of 30 min of ischemia the bulldog clamp was loosened, the perfuse was restored, the color of kidney changed gradually from dark red to bright red, showing re perfusion was successful. The wound was stitched. The animals were freely fed water and food. In the sham-operation group, the mice only received operation of abdomen open, kidney pedicle and abdomen suture. The kidney IR mode were made for the mice in the remaining groups. In each drug group, before 15 minute of ischemia, the drug with corresponding concentration was speritoneally injected, in drug combination group, 15 minutes before ischemia, the drugs were given simultaneously. At 24 hours after reperfusion, the mouse was anaesthetized again, the kidney specimen was obtained. The kidney specimen is fixed by 10% formaldehyde solution, paraffin embedded, sectioned, hematoxylin-eosin staining (HE), and the kidney histopathological change was observed under optical microscope.

[4] = tested on: rat middle cerebral artery distal obstruction cerebral ischemia model; assay: dMCAO cerebral ischemia: infarct size by TTC staining; settings: HEA 7.5 mg/kg ip, 24 hours after modeling, vs model group
[5] = tested on: mouse PD model induced by MPTP; assay: MPTP induced mouse PD model: TH positive cells in substantia nigra; settings: MPTP 30 mg/kg mice; Cordyceps cicadae extract 1500 mg/kg; HEA 10 mg/kg ip; 14 days
Procedure: 24±1 g male C57BL/6 mice were randomly divided into six groups: control group, model group, Cordyceps cicadae extract group (1500 mg/kg) (the extract method can refer to Example 3), HEA (5 mg/kg, 10 mg/kg, 15 mg/kg) group. Using mouse PD model induced by 1-methyl-4-phenyl-[…] (MPTP), in Cordyceps cicadae crude extract group and HEA with different concentration group were respectively peritoneal injected for consecutive 14 days, and at Day 11, before 1 hour of drug administration, MPTP 30 mg/kg was peritoneally injected, for consecutive 4 days, after one day after the last administration, a behavior test of pole-climbing ability was conducted, after 4 days the rat wad killed by puling neck and the striatum was removed. […]
After completion of behaviour detection, the heart was perfuse with 4% paraformaldehyde and the brain was removed, fixed, desiccated, embedded, and different parts in substantia nigra region were removed for coronal sectioned, tyrosine hydroxylase was used as specific marker for the neuron. The primary antibody is monoclonal mouse TH antibody (1;1000, Sigma), and the secondary antibody is Alexa fluor 488 fluorescence labeling goat anti-mouse (1;1000, Molecular Probes). Taking photo by a fluorescence microscope, and the TH positive cell in the substantia nigra were counted.

SMILES	IL-1β mRNA expression in renal cortex [1]	renal tubular epithelial cell apoptosis number (TUNEL×400) [2]	renal tubulointerstitial impairment score [3]	kidney histopathological changes (HE×400) [3]	infarct size (TTC staining) [4]	TUNEL apoptosis index ([2]; P<0.01, HEA 5, 7.5, 10 mg/kg, DPCPX 1 mg/kg+HEA 5 or 7.5 mg/kg)	number of the TH positive cells in substantia nigra [5]
CCCn1c(=O)c2[nH]c(C3CCCC3)nc2n(CCC)c1=O [DPCPX, reference compound]	significantly increase	significantly increased	significantly increase renal tubulointerstitial impairment scores	aggravate tissue necrosis			
OCCNc1ncnc2c1ncn2[C@@H]1O[C@H](CO)[C@@H](O)[C@H]1O [HEA, N(6)-(2-hydroxyethyl)-adenosine]	significantly reduce the high expression	apoptosis number is reduced	significantly reduced	significantly reduced compared with IR group	significantly reduce cerebral infarction area; also recorded: significantly reduce the infarct size of the injured brain	significantly less than IR group	increase number of the TH positive cells
